Reference: patent US4623648A, “1-azaxanthone for use as therapeutic agent as an antipyretic, analgesic, anti-inflammatory and bronchodilator” (priority 1981, dated 1986)
In brackets after ≈: the same amount, converted by molar mass. Read-outs that look alike come from different tables or passages of the source.

How the values were obtained:
Guinea pig ileum = Guinea pig ileum in vitro spasmolytic assay; settings: Cavia porcellus, read-out: ED50 (dose which inhibits the response of the ileum to the agonist by 50%)
Method: (§1) Sprague-Dawley rats, Swiss mice, California rabbits and mongrel guinea pigs and cats were used. 1-azaxanthone was administered as a suspension in 0.5 % w/v of carboxymethyl-cellulose in distilled water for oral and i.p. administration. When administered i.v. or to the nutrient liquid of the isolated tissues, a solution of the compound in isopropylidenglycerol (15 mg/ml) was used.
Guinea pig ileum (according to R. Magnus, Pflugers Arch. Ges. Physiol. 1904, 102, 123). In this "in vitro" assay 1-azaxanthone had the following ED50 with different agonists (dose which inhibits the response of the ileum to the agonists by 50%): […]

abscess = test: Carrageenan-induced abscess; format: in vivo; settings: 50×2 mg/kg per os
Method: as §1
Carrageenan-induced abscess (according to K. F. Benitz and L. M. Hall, Arch. Int. Pharmacodyn. 1963, 144, 185).

guinea pig [1] = test: Inhibition of the bronchoconstrictor response to bradykinin in guinea pig; format: in vivo; settings: 8 mg/kg i.v.; 10 min after 6 μg and 8 min before 12 μg of bradykinin
Method: as §1
Inhibition of the bronchoconstrictor response to bradykinin in guinea pig (according to H. Konzett and R. Rossler, ibid.). 1-azaxanthone (8 mg/kg i.v.) produced a 100% inhibition of the response induced by bradykinin when the test compound was administered 10 min after 6 μg and 8 min before 12 μg of bradykinin.

Acute toxicity in rats = settings: rat, in vivo
Method: (§2) The acute toxicity of 1-azaxanthone was evaluated in rats and mice. LD50 values ranged between 400-600 mg/kg (i.p. route) and between 600-2000 mg/kg (oral route) depending on species and sex.

rats [2] = test: Preliminary teratogenesis studies in rats; format: in vivo
[3] = tested on: schistosomiasis infections; settings: F. G. Mann, J. A. Reid, J. Chem. Soc. 1952; cited from earlier work
rabbits = test: Hyperthermia induced in rabbits by lipopolysaccharide of Escherichia coli, preventive; format: in vivo; settings: 0.1 μg/kg lipopolysaccharide
Method: Sprague-Dawley rats, Swiss mice, California rabbits and mongrel guinea pigs and cats were used. 1-azaxanthone was administered as a suspension in 0.5 % w/v of carboxymethyl-cellulose in distilled water for oral and i.p. administration.

rat inflamed paw = test: Hyperalgesia in rat inflamed paw (Randall and Selitto); format: in vivo; settings: po, per os, read-out: AID2 (dose that increases twice the analgesic threshold of the control animals)
Method: as §1
Hyperalgesia in rat inflamed paw (according to L. O. Randall and J. J. Selitto, Arch. Int. Pharmacodyn. 1957, 111, 409).

Acute toxicity in mice = settings: mouse, in vivo, ip, female mice
Method: as §2

[4] = tested on: turpentine-induced pleurisy; test: Turpentine-induced pleurisy; settings: in vivo
mice [5] = test: Hot plate test in mice; format: in vivo; settings: Mus musculus; oral, 1 hour before; plate 57°±0.5° C.; 95% confidence limits 11-39
Method: as §1
Hot plate test in mice. An analgesimeter LETICA model 7000 was used, the temperature of the plate being maintained at 57°±0.5° C. The test compound was administered by oral route 1 hour before placing the animals on the plate.

rat paw oedema = test: Carrageenan rat paw oedema; format: in vivo; settings: po, per os, 95% confidence limits 6.0-37.3
Method: as §1
Carrageenan rat paw oedema (according to C. A. Winter et al., Proc. Soc. Exptl. Biol. N.Y. 1962, 111, 544).

[6] = tested on: guinea pig tracheal chain; test: Isolated guinea pig tracheal chain; settings: Cavia porcellus, bath nutrient liquid
Method: as §1
Isolated guinea pig tracheal chain (according to J. C. Castillo and E. K. DeBeer, J. Pharmacol. Exptl. Ther. 1947, 90, 104). 1-azaxanthone produced maximum relaxation of the tracheal muscle at a concentration of 20 μg/ml in the bath nutrient liquid. The minimun effective dose was about 5 μg/ml.

rats [7] = test: 6 months toxicity evaluation in rats; format: in vivo; settings: 25, 50 and 100 mg/kg/day p.o.
guinea pig [8] = test: Inhibition of the bronchoconstrictor response to histamine in guinea pig; format: in vivo; settings: 8 mg/kg i.v., 5 μg histamine
Method: as §1
Inhibition of the bronchoconstrictor response to histamine in guinea pig (according to H. Konzett and R. Rossler, Arch. Exptl. Path. Pharmak. 1940, 195, 71). 1-azaxanthone (8 mg/kg i.v.) inhibited the response induced by 5 μg of histamine by 100% at 5 min, 67% at 10 min, 50% at 20 min, and 15% at 30 min after administration.

cardiocirculatory system = test: Effect on the cardiocirculatory system; format: in vivo; settings: rats, cats and dogs
granuloma pouch = test: Granuloma pouch; settings: in vivo
rats [9] = test: D'Amour and Smith test in rats; format: in vivo; settings: oral dose of ca. 100 mg/kg, 1 hour before testing
Method: as §1
"D'Amour and Smith" test in rats (see J. Pharmacol. Exptl. Therap., 1941, 72, 74). An analgesimeter LETICA model 7100 was used. An oral dose of ca. 100 mg/kg of 1-azaxanthone, administered 1 hour before testing produced analgesia in 50% of the animals.

mice [10] = test: Phenyl-p-benzoquinone induced writhing in mice; format: in vivo; settings: Mus musculus; oral; 95% confidence limits 6.1-11.8
Method: as §1
Phenyl-p-benzoquinone induced writhing in mice (according to E. A. Siegmund et al., J. Pharmacol. Exptl. Therap. 1957, 119, 453). […] I

O=c1c2ccccc2oc2ncccc12 [1-azaxanthone]
IC50 (Guinea pig ileum; agonist: Acetylcholine): 14.3 µg/mL (≈ 72.3 µM) | IC50 (Guinea pig ileum; agonist: BaCl2): 19.7 µg/mL (≈ 100 µM) | IC50 (Guinea pig ileum; agonist: Histamine): 22.9 µg/mL (≈ 116 µM) | IC50 (Guinea pig ileum; agonist: Nicotine): 27.8 µg/mL (≈ 141 µM) | inhibition of dry weight of the abscess (abscess): 48.4% | inhibition of wet weight of the abscess (abscess): 34.6% | inhibition of response induced by bradykinin (guinea pig [1]): 100% | LD50 (Acute toxicity in rats; ip, female rats): 420 mg/kg | LD50 (Acute toxicity in rats; po, orally, male rats): ~2000 mg/kg | teratogenic potential (rats [2]): did not show any clear specific teratogenic potential | effect on schistosomiasis infections [3]: did not show any "significant effect on schistosomiasis infections" | reduction of the increase in rectal temperature (rabbits; 100 mg/kg i.p., control increase 1.85° C.): 0.7 °C | protection against increase in rectal temperature (rabbits; 200 mg/kg i.p.): completely protected the animals | ED (2-fold analgesic threshold) (rat inflamed paw): 18.4 mg/kg | LD50 (Acute toxicity in mice): 600 mg/kg | activity in turpentine-induced pleurisy [4]: showed activity | ED50 (mice [5]): 21 mg/kg | ED50 (rat paw oedema): 21.7 mg/kg | EC (maximum relaxation) ([6]; read-out: concentration producing maximum relaxation of the tracheal muscle): 20 µg/mL | minimal effective concentration ([6]; read-out: minimum effective dose (tracheal relaxation)): ~5 µg/mL | toxicity results compared with the 92 days study (rats [7]): almost the same as in the 92 days study | inhibition of response induced by histamine (guinea pig [8]; 5 min after administration): 100% | inhibition of response induced by histamine (guinea pig [8]; 10 min after administration): 67% | inhibition of response induced by histamine (guinea pig [8]; 20 min after administration): 50% | inhibition of response induced by histamine (guinea pig [8]; 30 min after administration): 15% | effect on the cardiocirculatory system (cardiocirculatory system): no effect on the cardiocirculatory system | activity in granuloma pouch (granuloma pouch): showed activity | animals with analgesia (rats [9]): 50% | ED50 (mice [10]): 8.9 mg/kg
